According to ChEMBL document CHEMBL1201862, “PubChem BioAssay data set” (2004):
Activity calls are given as the source filed them.

Experiments:
[1] = tested on: Streptococcus sp. 'group A'; assay: growth inhibition of control SK(-) GAS strain, dose response, counter-screen for streptokinase expression inhibitor project, luminescence, kanamycin, BacTiterGlo, confirmation (AID 1900); assay type: functional, organism-based
[2] = tested on: Streptococcus; assay: Luminescence Microorganism-Based Dose Response Follow up to Identify Compounds Cytotoxic to Streptococcus. [Related pubchem assays: 1677 (Project Summary), 1915, 1914, 1902 (Retest at Dose), 1900 (Counter Screen), 1662 (Primary HTS)]; assay type: functional, organism-based
[3] = target: T1, Streptokinase A (Streptococcus pyogenes serotype M1, UniProt P10520); assay: S. pyogenes streptokinase expression inhibitors, potency, dose response, plasminogen activation absorbance, OD405 (AID 1914); assay type: functional, Streptococcus pyogenes M1 GAS;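 also: secreted streptokinase activity via plasminogen activation per viability signal from cell pellet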
T1 sequence (P10520 whole entry): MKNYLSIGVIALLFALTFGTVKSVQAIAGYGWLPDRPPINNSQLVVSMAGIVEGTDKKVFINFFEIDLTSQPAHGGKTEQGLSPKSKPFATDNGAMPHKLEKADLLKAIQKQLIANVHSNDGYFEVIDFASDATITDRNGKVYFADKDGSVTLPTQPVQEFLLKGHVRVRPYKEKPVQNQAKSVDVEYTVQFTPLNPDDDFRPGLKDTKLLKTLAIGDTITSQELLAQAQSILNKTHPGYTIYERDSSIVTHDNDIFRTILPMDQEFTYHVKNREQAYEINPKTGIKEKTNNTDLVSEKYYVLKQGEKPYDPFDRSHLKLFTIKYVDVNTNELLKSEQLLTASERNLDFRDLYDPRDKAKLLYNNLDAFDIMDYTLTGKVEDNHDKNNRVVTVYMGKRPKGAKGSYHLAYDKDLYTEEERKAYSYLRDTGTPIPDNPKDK

[4] = tested on: Streptococcus; assay: Group A Streptococcus viability loss, dose response, counter-screen for streptokinase expression inhibitor project, luminescence, BacTiterGlo (AID 1915); assay type: functional, organism-based;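 also: potency for reduction of bacterial viability or growth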
[5] = target: Disintegrin and metalloproteinase domain-containing protein 17 (Homo sapiens, UniProt P78536); assay: ADAM17 protease inhibitors, dose response, counter-screen for ADAM10 exosite inhibitor project, biochemical, quenched FRET substrate (AID 743253)
Sequence of Disintegrin and metalloproteinase domain-containing protein 17 (P78536 whole entry, the tested form may be a part): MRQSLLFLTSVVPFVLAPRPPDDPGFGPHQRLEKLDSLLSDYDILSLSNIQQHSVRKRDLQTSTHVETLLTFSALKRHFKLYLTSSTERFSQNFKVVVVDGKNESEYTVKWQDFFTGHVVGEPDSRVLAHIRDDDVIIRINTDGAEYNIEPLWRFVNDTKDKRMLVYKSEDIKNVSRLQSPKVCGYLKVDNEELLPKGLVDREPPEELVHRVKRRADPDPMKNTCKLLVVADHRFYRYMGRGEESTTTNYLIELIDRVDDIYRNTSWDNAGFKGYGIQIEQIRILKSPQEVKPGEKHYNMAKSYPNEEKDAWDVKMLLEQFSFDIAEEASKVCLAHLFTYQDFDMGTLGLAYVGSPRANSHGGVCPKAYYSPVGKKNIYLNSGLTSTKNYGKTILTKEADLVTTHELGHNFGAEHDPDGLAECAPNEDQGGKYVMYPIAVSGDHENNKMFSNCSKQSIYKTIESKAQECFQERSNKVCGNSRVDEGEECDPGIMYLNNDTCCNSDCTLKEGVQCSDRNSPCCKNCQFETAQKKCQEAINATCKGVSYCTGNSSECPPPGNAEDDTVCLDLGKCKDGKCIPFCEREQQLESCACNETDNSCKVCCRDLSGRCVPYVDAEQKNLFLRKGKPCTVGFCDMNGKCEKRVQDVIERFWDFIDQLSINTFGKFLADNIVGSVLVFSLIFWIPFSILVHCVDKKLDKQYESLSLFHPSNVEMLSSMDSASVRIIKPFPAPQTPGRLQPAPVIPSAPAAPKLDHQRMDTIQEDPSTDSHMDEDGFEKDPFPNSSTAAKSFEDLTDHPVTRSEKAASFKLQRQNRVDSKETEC

[6] = target: T2, Leucine aminopeptidase (Plasmodium falciparum 3D7, UniProt Q8IL11); assay: P. falciparum M17LAP inhibitors, primary screen, biochemical, fluorogenic H-Leu-NHMec substrate, 1536-well (AID 1619); assay type: functional
T2 sequence (Q8IL11 whole entry): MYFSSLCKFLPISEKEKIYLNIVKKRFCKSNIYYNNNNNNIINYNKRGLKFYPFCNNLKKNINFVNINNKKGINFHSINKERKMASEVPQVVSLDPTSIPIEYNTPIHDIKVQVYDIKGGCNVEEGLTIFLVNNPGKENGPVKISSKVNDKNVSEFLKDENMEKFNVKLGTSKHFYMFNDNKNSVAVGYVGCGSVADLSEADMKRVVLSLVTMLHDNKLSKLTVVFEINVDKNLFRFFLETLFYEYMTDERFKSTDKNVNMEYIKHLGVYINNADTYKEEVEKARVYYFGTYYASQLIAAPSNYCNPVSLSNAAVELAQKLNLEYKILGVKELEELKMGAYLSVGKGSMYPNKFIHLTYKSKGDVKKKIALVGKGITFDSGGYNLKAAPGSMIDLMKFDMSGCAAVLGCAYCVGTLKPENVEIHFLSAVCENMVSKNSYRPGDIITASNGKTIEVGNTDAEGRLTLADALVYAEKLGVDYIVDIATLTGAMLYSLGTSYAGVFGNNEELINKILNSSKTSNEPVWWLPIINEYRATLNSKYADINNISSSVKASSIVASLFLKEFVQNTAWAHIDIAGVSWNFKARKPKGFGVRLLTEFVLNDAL

[7] = target: Lysosomal acid glucosylceramidase (Homo sapiens, UniProt P04062); assay: Dose response cell-based high throughput screening assay to identify enhancers of beta-glucosidase activity. [Related pubchem assays: 784 ]; assay type: functional
Sequence of Lysosomal acid glucosylceramidase (P04062 whole entry): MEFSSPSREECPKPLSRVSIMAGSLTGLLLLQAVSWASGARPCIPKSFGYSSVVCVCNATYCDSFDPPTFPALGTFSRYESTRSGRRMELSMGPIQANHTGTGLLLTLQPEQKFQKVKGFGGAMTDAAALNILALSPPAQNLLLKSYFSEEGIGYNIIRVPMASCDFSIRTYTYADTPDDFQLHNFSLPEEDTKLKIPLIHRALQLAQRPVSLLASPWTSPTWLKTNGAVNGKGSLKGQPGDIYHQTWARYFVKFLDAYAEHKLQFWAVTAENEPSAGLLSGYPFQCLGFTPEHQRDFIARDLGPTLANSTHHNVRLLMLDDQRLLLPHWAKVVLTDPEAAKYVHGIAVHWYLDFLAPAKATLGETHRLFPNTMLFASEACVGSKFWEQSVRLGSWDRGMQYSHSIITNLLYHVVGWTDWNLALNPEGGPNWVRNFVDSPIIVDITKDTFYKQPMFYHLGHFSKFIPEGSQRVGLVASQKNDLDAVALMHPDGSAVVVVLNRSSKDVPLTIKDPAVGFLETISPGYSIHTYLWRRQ

[8] = target: Luciferin 4-monooxygenase (Photinus pyralis, UniProt P08659); assay: Counter Screen for Luciferase-based Assay Positives. [Related pubchem assays: 620, 618, 411 ]
Sequence of Luciferin 4-monooxygenase (P08659 whole entry): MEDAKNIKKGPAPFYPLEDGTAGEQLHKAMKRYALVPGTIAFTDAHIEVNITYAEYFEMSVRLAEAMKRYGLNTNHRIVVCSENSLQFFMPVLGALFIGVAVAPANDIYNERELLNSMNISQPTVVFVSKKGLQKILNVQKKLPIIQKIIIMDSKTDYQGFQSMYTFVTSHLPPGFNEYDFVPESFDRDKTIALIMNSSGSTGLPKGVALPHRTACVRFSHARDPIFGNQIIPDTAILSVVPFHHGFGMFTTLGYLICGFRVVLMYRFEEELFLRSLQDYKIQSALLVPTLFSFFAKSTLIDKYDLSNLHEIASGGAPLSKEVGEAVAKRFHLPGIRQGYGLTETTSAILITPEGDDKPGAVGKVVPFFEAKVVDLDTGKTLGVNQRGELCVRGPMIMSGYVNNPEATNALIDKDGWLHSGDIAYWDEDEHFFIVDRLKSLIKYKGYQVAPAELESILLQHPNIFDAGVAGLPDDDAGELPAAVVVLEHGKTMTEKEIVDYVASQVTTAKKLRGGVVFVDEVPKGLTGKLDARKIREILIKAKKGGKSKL

[9] = tested on: HT-1080; assay: cytotoxicity in HT1080 fibrosarcoma cells, cell-based, fluorescence readout (AID 620); assay type: functional; conditions: Homo sapiens
[10] = Late stage assay provider results from the probe development effort to identify selective inhibitors of heat shock protein 90 (HSP90): Absorbance-based cell proliferation assay in SKBR3 cells.; assay type: functional; conditions: SK-BR-3
[11] = HEK293 cell cytotoxicity, dose response, cytotoxicity control, cherry-picks, set 5 (AID 1053117); assay type: functional, cell-based
[12] = Late stage assay provider results from the probe development effort to identify selective inhibitors of heat shock protein 90 (HSP90): Absorbance-based cell proliferation assay in MCF7 cells.; assay type: functional
[13] = inhibitors of fibronectin matrix deposition, dose response, AH1F cells, Alexa488-FN fluorescence, cherry-picks (AID 1035475); assay type: functional, cell-based
[14] = NIH-3T3 fibroblast cytotoxicity, dose response, cytotoxicity control, cell-based, fluorescence, Alamar Blue, secondary assay (AID 2327); assay type: functional;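 also: NIH-3T3 mouse fibroblasts cultured with fluconazole at 8 µg/mL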
[15] = target: Aminopeptidase N (Plasmodium falciparum FcB1/Columbia, UniProt O96935); assay: P. falciparum M1AAP inhibitors, biochemical, fluorogenic H-Leu-NHMec substrate, 1536-well (AID 1445); set-up: species or system Plasmodium falciparum 3D7, 3D7
[16] = C. albicans growth with fluconazole, confirmation, fluorescence, retest (AID 2467); assay type: functional, cell-based
[17] = HIV-1 Env-mediated cell fusion inhibitors, dose response, CCR5-tropic Env (AID 2279); assay type: functional
[18] = inhibitors of Bluetongue virus cytopathic effect, confirmation, arbovirus, BSR cells (AID 1250); assay type: functional;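 also: protection from viral cytopathic effect measured as cell viability by ATP luminescence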
[19] = target: T3, Fatty acid synthase (Homo sapiens, UniProt P49327); assay: FAS thioesterase domain inhibitors, dose response, biochemical, endpoint fluorescence intensity, uHTS hits (AID 624327); assay type: functional;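 also: fluorescence from hydrolysis of an O-methyl fluorescein acyl ester substrate by the enzyme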
T3 sequence (P49327 whole entry, the tested form may be a part): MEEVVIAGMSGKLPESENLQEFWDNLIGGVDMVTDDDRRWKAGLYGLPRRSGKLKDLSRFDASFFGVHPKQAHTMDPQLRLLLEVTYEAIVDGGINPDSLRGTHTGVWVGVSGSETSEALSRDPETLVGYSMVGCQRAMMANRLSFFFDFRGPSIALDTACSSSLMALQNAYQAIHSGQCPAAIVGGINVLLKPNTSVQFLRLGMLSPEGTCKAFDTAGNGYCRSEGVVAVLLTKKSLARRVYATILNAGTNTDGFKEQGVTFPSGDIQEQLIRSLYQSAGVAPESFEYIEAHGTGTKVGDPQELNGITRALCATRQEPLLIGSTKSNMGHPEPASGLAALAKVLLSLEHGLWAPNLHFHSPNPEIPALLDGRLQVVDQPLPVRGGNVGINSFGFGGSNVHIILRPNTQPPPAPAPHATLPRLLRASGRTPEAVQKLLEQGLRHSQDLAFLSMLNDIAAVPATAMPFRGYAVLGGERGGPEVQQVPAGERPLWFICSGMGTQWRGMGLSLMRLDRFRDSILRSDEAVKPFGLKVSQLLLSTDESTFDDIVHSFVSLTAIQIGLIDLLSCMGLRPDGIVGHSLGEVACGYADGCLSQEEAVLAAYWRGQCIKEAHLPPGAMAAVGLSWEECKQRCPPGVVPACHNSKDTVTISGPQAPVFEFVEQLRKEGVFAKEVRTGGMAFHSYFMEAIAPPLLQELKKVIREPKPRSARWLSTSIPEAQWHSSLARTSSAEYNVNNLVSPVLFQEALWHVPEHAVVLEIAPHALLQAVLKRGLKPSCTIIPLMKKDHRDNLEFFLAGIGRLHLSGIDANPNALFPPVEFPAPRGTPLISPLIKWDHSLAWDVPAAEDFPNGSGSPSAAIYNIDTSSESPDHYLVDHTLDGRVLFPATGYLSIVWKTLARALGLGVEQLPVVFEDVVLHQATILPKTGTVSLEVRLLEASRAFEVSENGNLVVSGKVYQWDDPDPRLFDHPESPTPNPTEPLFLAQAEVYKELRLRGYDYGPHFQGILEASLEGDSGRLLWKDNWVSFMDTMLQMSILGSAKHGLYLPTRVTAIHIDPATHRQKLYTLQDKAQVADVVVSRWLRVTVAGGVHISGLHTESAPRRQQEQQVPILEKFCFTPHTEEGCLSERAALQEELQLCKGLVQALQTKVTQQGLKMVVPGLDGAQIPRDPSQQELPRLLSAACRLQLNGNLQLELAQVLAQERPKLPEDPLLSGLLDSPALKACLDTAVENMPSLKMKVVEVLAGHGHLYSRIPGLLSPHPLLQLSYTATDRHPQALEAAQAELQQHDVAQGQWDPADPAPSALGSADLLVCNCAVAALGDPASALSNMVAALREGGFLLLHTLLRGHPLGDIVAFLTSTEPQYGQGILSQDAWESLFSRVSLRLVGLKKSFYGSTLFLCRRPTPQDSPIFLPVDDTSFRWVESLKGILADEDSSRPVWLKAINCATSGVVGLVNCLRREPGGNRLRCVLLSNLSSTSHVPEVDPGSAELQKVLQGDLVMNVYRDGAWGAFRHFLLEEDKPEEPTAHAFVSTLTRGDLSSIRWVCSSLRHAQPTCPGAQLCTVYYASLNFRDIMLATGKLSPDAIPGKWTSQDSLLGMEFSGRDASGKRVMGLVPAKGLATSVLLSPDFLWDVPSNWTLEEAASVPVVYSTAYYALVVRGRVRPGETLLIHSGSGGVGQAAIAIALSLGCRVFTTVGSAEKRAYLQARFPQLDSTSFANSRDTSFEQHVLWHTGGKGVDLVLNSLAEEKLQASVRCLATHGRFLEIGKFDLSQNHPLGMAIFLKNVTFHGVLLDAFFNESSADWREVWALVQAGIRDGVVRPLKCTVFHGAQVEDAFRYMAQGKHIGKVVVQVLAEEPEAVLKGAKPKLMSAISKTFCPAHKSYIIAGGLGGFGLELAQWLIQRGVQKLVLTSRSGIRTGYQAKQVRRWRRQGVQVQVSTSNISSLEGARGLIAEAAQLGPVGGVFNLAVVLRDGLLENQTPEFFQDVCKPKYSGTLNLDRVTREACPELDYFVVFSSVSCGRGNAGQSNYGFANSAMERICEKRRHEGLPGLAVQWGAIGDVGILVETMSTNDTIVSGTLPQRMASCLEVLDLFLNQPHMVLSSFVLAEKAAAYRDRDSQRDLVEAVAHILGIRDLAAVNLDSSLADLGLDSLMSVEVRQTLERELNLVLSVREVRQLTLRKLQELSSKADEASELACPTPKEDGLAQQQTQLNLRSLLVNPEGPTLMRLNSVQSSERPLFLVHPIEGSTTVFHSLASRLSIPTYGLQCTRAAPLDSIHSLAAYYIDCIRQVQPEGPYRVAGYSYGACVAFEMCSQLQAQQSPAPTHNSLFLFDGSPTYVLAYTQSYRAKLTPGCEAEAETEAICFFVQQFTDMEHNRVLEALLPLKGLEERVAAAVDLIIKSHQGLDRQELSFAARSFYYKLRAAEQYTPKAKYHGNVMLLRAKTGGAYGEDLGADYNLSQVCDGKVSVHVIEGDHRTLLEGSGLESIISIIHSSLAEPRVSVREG

[20] = target: T3, Fatty acid synthase; assay: FAS thioesterase domain inhibitors, dose response, biochemical, kinetic fluorescence intensity (AID 624326); assay type: functional;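 also: rate of fluorescence rise from hydrolysis of a fluorogenic O-methyl fluorescein ester substrate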

## Cc1cccc(C)c1OCC(O)Cn1c2ccccc2c2ccccc21 (stereo not given)
[1]
  EC50: 6.75 µM (active)
[2]
  EC50: 9.21 µM (active)
[3]
  EC50: 3.98 µM (active)
[4]
  EC50: 7.9 µM (active)
[5]
  IC50: > 69.5 µM (inactive)

## O=C(CN1C(=O)c2ccccc2S1(=O)=O)NCCSC1CCCCC1
[6]
  IC50: 9.32 µM (active)
[7]
  EC50: > 10 µM (not active)

## CC(C)CNC(=O)c1coc(=O)c(Br)c1
[8]
  EC50: 1.83 µM (active)
[9]
  EC50: 20.4 µM (active)
[10]
  IC50: 22 µM (inactive)
[11]
  AC50: > 52 µM (inactive)
[12]
  IC50: 7.5 µM (active)
[13]
  AC50: 23.9 µM (active)

## COc1cc(/C=C(\C#N)c2nc3ccccc3s2)cc([N+](=O)[O-])c1O
[14]
  EC50: > 150 µM (inactive)
[15]
  IC50: 11 µM (active)
[16]
  EC50: > 38 µM (not active)
[17]
  IC50: > 50 µM (active)
[18]
  IC50: 33.7 µM (active)
[19]
  IC50: 12.4 µM (active)
[20]
  IC50: 10 µM (active)
